Measured values from ChEMBL document CHEMBL1201862, “PubChem BioAssay data set” (2004).
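Exposure lasted 48 hours, with cells grown in 96-well plates and compounds tested at five concentrations. At the GI50, growth is halved.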 Active and inactive are the calls of the source. Rule as the data show it: active = GI50 up to about 1.1 µM and inactive = higher.

Legend:
Experiment in all cases: NCI anticancer screen, dose series, 48 h
CAKI-1 = test system: CAKI-1
COLO 205 = test system: COLO 205
HCC 2998 = test system: HCC 2998
HCT-15 = test system: HCT-15
HOP-92 = test system: HOP-92
K562 = test system: K562
M14 = test system: M14
MCF7 = test system: MCF7
MDA-MB-435 = test system: MDA-MB-435
MOLT-4 = test system: MOLT-4
NCI-H23 = test system: NCI-H23
NCI-H522 = test system: NCI-H522
RXF 393 = test system: RXF 393
SK-MEL-28 = test system: SK-MEL-28
SK-MEL-5 = test system: SK-MEL-5
SK-OV-3 = test system: SK-OV-3
SN12C = test system: SN12C
SNB-19 = test system: SNB-19
SR = test system: SR
U-251 = test system: U-251

Row | SMILES | GI50 (CAKI-1) | GI50 (COLO 205) | GI50 (HCC 2998) | GI50 (HCT-15) [µM] | GI50 (HOP-92) | GI50 (K562) | GI50 (M14) | GI50 (MCF7) | GI50 (MDA-MB-435) | GI50 (MOLT-4) | GI50 (NCI-H23) | GI50 (NCI-H522) | GI50 (RXF 393) | GI50 (SK-MEL-28) | GI50 (SK-MEL-5) | GI50 (SK-OV-3) | GI50 (SN12C) | GI50 (SNB-19) | GI50 (SR) | GI50 (U-251)
1 | N#Cc1c2c(c(Nc3ccc(Cl)cc3)n3c1nc1ccccc13)CCCC2 | 36.5 µM (inactive) | 37.9 µM (inactive) | 32.9 µM (inactive) | 25.9 | > 37.4 µM (inactive) | 4.46 µM (inactive) | > 83.2 µM (inactive) | 7.59 µM (inactive) | > 100 µM (inactive) | 3.18 µM (inactive) | > 71.3 µM (inactive) | 17.5 µM (inactive) | 33.7 µM (inactive) | > 76 µM (inactive) | 20.5 µM (inactive) | 54.7 µM (inactive) | 65.9 µM (inactive) | 23.1 µM (inactive) | 17 µM (inactive) | 18.5 µM (inactive)
2 | COC(=O)CCC(=O)c1ccc2c(c1)CC1(C2)Cc2ccc(C(=O)CCC(=O)OC)cc2C1 | – | 94.4 µM (inactive) | > 100 µM (inactive) | > 100 | > 100 µM (inactive) | 29.9 µM (inactive) | 66.5 µM (inactive) | 44.1 µM (inactive) | > 100 µM (inactive) | 52 µM (inactive) | 59.7 µM (inactive) | 55.1 µM (inactive) | > 100 µM (inactive) | – | 17.3 µM (inactive) | 67 µM (inactive) | > 100 µM (inactive) | – | 17 µM (inactive) | 36.4 µM (inactive)
3 | O=c1[nH]cnc2c1ncn2C1SC(CO)C(O)C1O (stereo not drawn) | > 100 µM (inactive) | > 100 µM (inactive) | > 100 µM (inactive) | > 100 | > 100 µM (inactive) | > 100 µM (inactive) | > 100 µM (inactive) | > 100 µM (inactive) | > 100 µM (inactive) | > 100 µM (inactive) | > 100 µM (inactive) | > 100 µM (inactive) | > 100 µM (inactive) | > 100 µM (inactive) | > 100 µM (inactive) | > 100 µM (inactive) | > 100 µM (inactive) | > 100 µM (inactive) | > 100 µM (inactive) | > 100 µM (inactive)
4 | N#Cc1cnc(N)nc1NCC1(CO)CC(CCc2ccccc2)C1 (stereo not drawn) | > 100 µM (inactive) | > 100 µM (inactive) | > 100 µM (inactive) | > 100 | 19.7 µM (inactive) | 2.51 µM (inactive) | > 100 µM (inactive) | 49.1 µM (inactive) | 25.2 µM (inactive) | 3.15 µM (inactive) | 63.4 µM (inactive) | > 55.2 µM (inactive) | 49 µM (inactive) | > 100 µM (inactive) | 1.72 µM (inactive) | 27.1 µM (inactive) | > 100 µM (inactive) | 55.3 µM (inactive) | 20.1 µM (inactive) | > 59.2 µM (inactive)
5 | O=[As]O | > 56.1 µM (inactive) | > 90.6 µM (inactive) | > 100 µM (inactive) | > 52.5 | > 41.6 µM (inactive) | 37.7 µM (inactive) | > 50.5 µM (inactive) | 28.6 µM (inactive) | > 100 µM (inactive) | > 56.8 µM (inactive) | > 48.3 µM (inactive) | 22.8 µM (inactive) | > 32.9 µM (inactive) | > 59 µM (inactive) | 32.4 µM (inactive) | > 100 µM (inactive) | > 48.4 µM (inactive) | > 67.5 µM (inactive) | 18.9 µM (inactive) | 23.2 µM (inactive)
6 | CCOC(=O)C1(C(=O)OCC)CN(CC)CN(c2ccccc2)C1 | 17.8 µM (inactive) | 18.2 µM (inactive) | 15.4 µM (inactive) | 16 | 16.5 µM (inactive) | 39.4 µM (inactive) | 19.1 µM (inactive) | 18.5 µM (inactive) | 19.1 µM (inactive) | 18.3 µM (inactive) | 18.4 µM (inactive) | 29.3 µM (inactive) | 17.1 µM (inactive) | 18.7 µM (inactive) | 34.8 µM (inactive) | > 100 µM (inactive) | 37.1 µM (inactive) | > 100 µM (inactive) | 21 µM (inactive) | –
7 | Cc1nc(-c2cc3cc(Cl)ccc3oc2=O)cc2c1c(=O)oc1ccc(Cl)cc12 | – | > 100 µM (inactive) | > 100 µM (inactive) | > 100 | > 100 µM (inactive) | > 100 µM (inactive) | > 100 µM (inactive) | > 100 µM (inactive) | > 100 µM (inactive) | > 100 µM (inactive) | > 100 µM (inactive) | 70.3 µM (inactive) | > 100 µM (inactive) | > 100 µM (inactive) | > 100 µM (inactive) | > 100 µM (inactive) | > 100 µM (inactive) | > 100 µM (inactive) | > 100 µM (inactive) | > 100 µM (inactive)
8 | CCOC(=O)c1c(N2CCOCC2)[nH]c(=O)c(C(c2ccco2)c2c(O)c(C(=O)OCC)c(N3CCOCC3)[nH]c2=O)c1O | > 100 µM (inactive) | > 100 µM (inactive) | > 100 µM (inactive) | > 100 | 80.9 µM (inactive) | > 100 µM (inactive) | > 100 µM (inactive) | > 100 µM (inactive) | > 100 µM (inactive) | > 100 µM (inactive) | > 100 µM (inactive) | > 100 µM (inactive) | > 100 µM (inactive) | > 100 µM (inactive) | > 100 µM (inactive) | > 100 µM (inactive) | > 100 µM (inactive) | > 100 µM (inactive) | > 100 µM (inactive) | > 100 µM (inactive)
9 | O=c1[nH]c(Nc2cccc(C(F)(F)F)c2)nc2[nH]cnc12 | > 100 µM (inactive) | 73.3 µM (inactive) | > 100 µM (inactive) | > 100 | > 100 µM (inactive) | > 100 µM (inactive) | > 100 µM (inactive) | > 100 µM (inactive) | > 100 µM (inactive) | > 100 µM (inactive) | – | 69.7 µM (inactive) | > 100 µM (inactive) | > 100 µM (inactive) | 40.1 µM (inactive) | > 100 µM (inactive) | > 100 µM (inactive) | > 100 µM (inactive) | > 100 µM (inactive) | > 100 µM (inactive)
10 | N#CC(C#N)=CNC(N)=S | > 100 µM (inactive) | > 100 µM (inactive) | > 100 µM (inactive) | > 100 | > 100 µM (inactive) | > 100 µM (inactive) | > 100 µM (inactive) | > 100 µM (inactive) | > 100 µM (inactive) | > 100 µM (inactive) | > 100 µM (inactive) | > 100 µM (inactive) | > 100 µM (inactive) | > 100 µM (inactive) | > 100 µM (inactive) | > 100 µM (inactive) | > 100 µM (inactive) | > 100 µM (inactive) | > 100 µM (inactive) | > 100 µM (inactive)
11 | CCOC(=O)C(Cc1ccc2c(c1)CCC2)Cc1ccc2c(c1)CCC2 | > 100 µM (inactive) | – | 95.9 µM (inactive) | > 100 | > 100 µM (inactive) | 26.5 µM (inactive) | > 100 µM (inactive) | 45.4 µM (inactive) | 42 µM (inactive) | 16.9 µM (inactive) | 69 µM (inactive) | 44.9 µM (inactive) | > 100 µM (inactive) | > 100 µM (inactive) | 18.5 µM (inactive) | > 100 µM (inactive) | – | > 100 µM (inactive) | 25.1 µM (inactive) | 51.4 µM (inactive)
12 | COC(=O)C(Cc1ccccc1)NP(=O)(O)OCC1OC(n2cc(Br)c(=O)[nH]c2=O)CC1O (stereo not drawn) | – | > 100 µM (inactive) | > 100 µM (inactive) | > 100 | > 100 µM (inactive) | > 100 µM (inactive) | > 100 µM (inactive) | > 100 µM (inactive) | > 100 µM (inactive) | > 100 µM (inactive) | > 100 µM (inactive) | > 100 µM (inactive) | > 100 µM (inactive) | > 100 µM (inactive) | > 100 µM (inactive) | > 100 µM (inactive) | > 100 µM (inactive) | > 100 µM (inactive) | > 100 µM (inactive) | > 100 µM (inactive)
13 | COc1ccc(/C(C)=C2\CCCN(Cc3ccccc3)C2)cc1 | 22.6 µM (inactive) | 17.5 µM (inactive) | 21 µM (inactive) | 20.3 | 17.7 µM (inactive) | 24 µM (inactive) | 18.1 µM (inactive) | 19.2 µM (inactive) | 20.7 µM (inactive) | 24.4 µM (inactive) | 25.8 µM (inactive) | 13.4 µM (inactive) | 18.6 µM (inactive) | 22 µM (inactive) | 17.5 µM (inactive) | 29.9 µM (inactive) | – | 22.9 µM (inactive) | 20.4 µM (inactive) | 19.6 µM (inactive)
14 | NC(CCC(=O)c1ccccn1)C(=O)O (stereo not drawn) | > 100 µM (inactive) | > 100 µM (inactive) | > 100 µM (inactive) | > 100 | > 100 µM (inactive) | – | > 100 µM (inactive) | > 100 µM (inactive) | > 100 µM (inactive) | > 100 µM (inactive) | > 100 µM (inactive) | > 100 µM (inactive) | > 100 µM (inactive) | > 100 µM (inactive) | > 100 µM (inactive) | > 100 µM (inactive) | > 100 µM (inactive) | > 100 µM (inactive) | > 100 µM (inactive) | > 100 µM (inactive)
15 | COc1ccc(C2C(C#N)=C(S)N(C3OC(COC(C)=O)C(OC(C)=O)C(OC(C)=O)C3OC(C)=O)C(C)=C2C(C)=O)cc1 (stereo not drawn) | > 100 µM (inactive) | 58.2 µM (inactive) | > 100 µM (inactive) | > 100 | 30 µM (inactive) | 28.1 µM (inactive) | 57 µM (inactive) | > 100 µM (inactive) | 66.4 µM (inactive) | 20.1 µM (inactive) | > 100 µM (inactive) | – | 40.5 µM (inactive) | > 100 µM (inactive) | 26.4 µM (inactive) | > 100 µM (inactive) | > 100 µM (inactive) | > 100 µM (inactive) | 49.1 µM (inactive) | > 100 µM (inactive)
